# Experiments:
# IGF-1R = assay: Biacore analysis of the IGF-1R-Fc mutant library: M13-C06 Fab binding to receptor-Fc captured on M13-C06 chip; parameters: species or system human; conditions: M13-C06 Fab binding to mutant hIGF-1R-Fc captured on M13-C06 chip
# Source text: Both mIGF-1R-Fc and hIGF-1R-Fc bind with high apparent affinity to the M13-C06, M14-C03, and M14-G11 sensorchip surfaces described above due to their highly multivalent nature induced by the incorporation of two separate homodimeric regions (IGF-1R and IgG1-Fc). To distinguish between the actual high affinity binding hIGF-1R-Fc to M13-C06 and the low affinity binding of mIGF-1R-Fc to M13-C06, the receptor-Fc fusions were captured on the M13-C06 sensorchip surface followed by an additional soluble M13-C06 Fab binding event. […] After, completion of the receptor-Fc loading step, flow rates were elevated to 5 μl/min. 10 nM, […], and 1 nM M13-C06 Fab concentrations were injected (50 μL) subsequent to the loading of each receptor-Fc construct. At the end of each sensorgram, the flow rate was elevated to 30 μl/min and the chip surface was regenerated by 2×10 μL injections of 0.1 M glycine, pH 2.
# IGF-1R-Fc = assay: Surface plasmon resonance analysis of the IGF-1R-Fc mutant library (46 mutants); type: binding, human; conditions: for C06 binding: M13-C06 Fab; for C06 binding / G11 binding / C03 binding / P1E2 binding / αIR3 binding: KD relative to WT hIGF-1R-Fc; for G11 binding: M14-G11 Fab; for C03 binding: M14-C03 Fab; for P1E2 binding: P1E2 antibody; for αIR3 binding: αIR3 antibody
# Method: Surface plasmon resonance (SPR) experiments were performed on a Biacore 3000 instrument set to 25° C. Both mIGF-1R-Fc and hIGF-1R-Fc bind with high apparent affinity to research grade CM5 sensorchip surfaces containing immobilized M13-C06, M14-C03, and M14-G11. The antibody sensorchip surfaces were prepared by injecting each antibody (diluted 100 μg/mL in 10 mM Acetate, pH 4.0) over EDC/NHS-activated sensorchip surfaces according to the standard protocol of the manufacturer. The ability of mIGF-1R-Fc to bind the antibody surfaces was the result of high apparent avidity of the protein. Both hIGF-1R-Fc and mIGF-1R-Fc proteins oligomerize due to the incorporation of two separate homodimeric regions (IGF-1R and IgG1-Fc). To distinguish between actual high affinity antibody binding to hIGF-1R-Fc and low affinity antibody binding to mIGF-1R-Fc, the receptor-Fc fusions were captured on the M13-C06 and M14-G11 sensorchip surfaces followed by an additional injection of antibody (αIR3 and P1E2) or antibody Fab (M13-C06, M14-C03, and M14-G11). […] After, completion of the receptor-Fc loading step, flow rates were elevated to 5 μl/min. Solutions containing M13-C06 Fab or αIR3 antibody at 10 nM, 3 nM, or 1 nM or M14-C03 Fab, M14-G11 Fab, or P1E2 antibody at 30 nM, 10 nM, or 3 nM were injected (50 μL) subsequent to the loading of each receptor-Fc construct. Dissociation was measured for 7 minutes after the antibody injections were complete. Finally, the flow rate was elevated to 30 μL/min and the chip surfaces were regenerated by 2×10 μL injections of 0.1 M glycine, pH 2.
# M13-C06, M14-C03, M14-G11, P1E2 and αIR3 were assayed for their ability to interact with each of the mutant IGF-1R-Fc fusion constructs using surface plasmon resonance (Biacore). To remove the uncertain concentrations of the IGF-1R-Fc fusion constructs as a variable in the assay, each mutant construct was captured on a research grade CM5 chip containing ˜10,000 RU immobilized […], M14-C03, and M14-G11 antibody. To enhance our ability to visualize attenuations in antibody binding to the captured mutant IGF-1R constructs, we utilized enzymatically derived M13-C06, M14-C03, and M14-G11 antigen binding fragments (Fabs).
Substance,Biacore Relative RUmax (IGF-1R),C06 binding (IGF-1R-Fc),G11 binding (IGF-1R-Fc),C03 binding (IGF-1R-Fc),effect of mutation on M13-C06 and M14-C03 Fab binding (IGF-1R-Fc),P1E2 binding (IGF-1R-Fc),αIR3 binding (IGF-1R-Fc)
SD001: hIGF-1R-Fc mutant Y28A,0.6,NE (No effect (NE): measured KD within 2.5-fold of WT hIGF-1R-Fc),NE (No effect (NE): measured KD within 2.5-fold of WT hIGF-1R-Fc),–,–,–,–
SD002: hIGF-1R-Fc mutant M156A,1.2,NE (No effect (NE): measured KD within 2.5-fold of WT hIGF-1R-Fc),NE (No effect (NE): measured KD within 2.5-fold of WT hIGF-1R-Fc),–,–,–,–
SD003: hIGF-1R-Fc mutant T188F,1.0,NE (No effect (NE): measured KD within 2.5-fold of WT hIGF-1R-Fc),NE (No effect (NE): measured KD within 2.5-fold of WT hIGF-1R-Fc),–,–,–,–
SD004: hIGF-1R-Fc mutant S210H_A211Q,0.8,NE (No effect (NE): measured KD within 2.5-fold of WT hIGF-1R-Fc),NE (No effect (NE): measured KD within 2.5-fold of WT hIGF-1R-Fc),NE (No effect (NE): measured KD within 2.5-fold of WT hIGF-1R-Fc),–,–,–
SD005: hIGF-1R-Fc mutant A217T,0.9,NE (No effect (NE): measured KD within 2.5-fold of WT hIGF-1R-Fc),NE (No effect (NE): measured KD within 2.5-fold of WT hIGF-1R-Fc),NE (No effect (NE): measured KD within 2.5-fold of WT hIGF-1R-Fc),–,–,–
SD101: hIGF-1R-Fc mutant S427L,–,NE (No effect (NE): measured KD within 2.5-fold of WT hIGF-1R-Fc),–,NE (No effect (NE): measured KD within 2.5-fold of WT hIGF-1R-Fc),–,–,–
SD102: hIGF-1R-Fc mutant E459A S460A,–,S (Strong (S): binding to antibody was ablated by mutation),–,S (Strong (S): binding to antibody was ablated by mutation),–,–,–
SD103: hIGF-1R-Fc mutant D461A V462T,–,S-most,–,S-most,no reactivity towards the M13-C06 and M14-C03 Fabs,–,–
SD104: hIGF-1R-Fc mutant H464A,–,S (Strong (S): binding to antibody was ablated by mutation),–,S (Strong (S): binding to antibody was ablated by mutation),–,–,–
SD105: hIGF-1R-Fc mutant T466L S467Y,–,W (Weak (W): measured KD between 2.5-10-fold higher than WT),–,W (Weak (W): measured KD between 2.5-10-fold higher than WT),–,–,–
SD106: hIGF-1R-Fc mutant T468R,–,NE (No effect (NE): measured KD within 2.5-fold of WT hIGF-1R-Fc),–,NE (No effect (NE): measured KD within 2.5-fold of WT hIGF-1R-Fc),–,–,–
SD107: hIGF-1R-Fc mutant T478R,–,NE (No effect (NE): measured KD within 2.5-fold of WT hIGF-1R-Fc),–,W (Weak (W): measured KD between 2.5-10-fold higher than WT),–,–,–
SD108: hIGF-1R-Fc mutant H480E,–,S (Strong (S): binding to antibody was ablated by mutation),–,S (Strong (S): binding to antibody was ablated by mutation),–,–,–
SD109: hIGF-1R-Fc mutant Y482A R483W,–,S (Strong (S): binding to antibody was ablated by mutation),–,S (Strong (S): binding to antibody was ablated by mutation),–,–,–
SD110: hIGF-1R-Fc mutant E533H,–,W (Weak (W): measured KD between 2.5-10-fold higher than WT),–,S (Strong (S): binding to antibody was ablated by mutation),–,–,–
SD111: hIGF-1R-Fc mutant I564T R565A,–,W (Weak (W): measured KD between 2.5-10-fold higher than WT),–,W (Weak (W): measured KD between 2.5-10-fold higher than WT),–,–,–

Substance,Biacore Relative RUmax (IGF-1R),C06 binding (IGF-1R-Fc),G11 binding (IGF-1R-Fc),C03 binding (IGF-1R-Fc),effect of mutation on M13-C06 and M14-C03 Fab binding (IGF-1R-Fc),P1E2 binding (IGF-1R-Fc),αIR3 binding (IGF-1R-Fc)
SD112: hIGF-1R-Fc mutant K568A,–,NE (No effect (NE): measured KD within 2.5-fold of WT hIGF-1R-Fc),–,W (Weak (W): measured KD between 2.5-10-fold higher than WT),–,–,–
SD113: hIGF-1R-Fc mutant E570A I571T,–,S (Strong (S): binding to antibody was ablated by mutation),–,S (Strong (S): binding to antibody was ablated by mutation),–,–,–
SD201: hIGF-1R-Fc mutant D248A,–,–,S (Strong (S): binding to antibody was ablated by mutation),–,–,W (Weak (W): measured KD between 2.5-10-fold higher than WT),S (Strong (S): binding to antibody was ablated by mutation)
SD202: hIGF-1R-Fc mutant D250S,–,–,S (Strong (S): binding to antibody was ablated by mutation),–,–,NE (No effect (NE): measured KD within 2.5-fold of WT hIGF-1R-Fc),NE (No effect (NE): measured KD within 2.5-fold of WT hIGF-1R-Fc)
SD203: hIGF-1R-Fc mutant N254A,–,–,M (Medium (M): measured KD between 10-100-fold higher than WT),–,–,S (Strong (S): binding to antibody was ablated by mutation),M (Medium (M): measured KD between 10-100-fold higher than WT)
SD204: hIGF-1R-Fc mutant S257K,–,–,W (Weak (W): measured KD between 2.5-10-fold higher than WT),–,–,M (Medium (M): measured KD between 10-100-fold higher than WT),NE (No effect (NE): measured KD within 2.5-fold of WT hIGF-1R-Fc)
SD205: hIGF-1R-Fc mutant E259K S260N,–,–,W (Weak (W): measured KD between 2.5-10-fold higher than WT),–,–,NE (No effect (NE): measured KD within 2.5-fold of WT hIGF-1R-Fc),NE (No effect (NE): measured KD within 2.5-fold of WT hIGF-1R-Fc)
SD206: hIGF-1R-Fc mutant S263R,–,–,W (Weak (W): measured KD between 2.5-10-fold higher than WT),–,–,NE (No effect (NE): measured KD within 2.5-fold of WT hIGF-1R-Fc),W (Weak (W): measured KD between 2.5-10-fold higher than WT)
SD207: hIGF-1R-Fc mutant G265Y,–,–,W (Weak (W): measured KD between 2.5-10-fold higher than WT),–,–,S (Strong (S): binding to antibody was ablated by mutation),S (Strong (S): binding to antibody was ablated by mutation)
SD208: hIGF-1R-Fc mutant V301Y,–,–,NE (No effect (NE): measured KD within 2.5-fold of WT hIGF-1R-Fc),–,–,NE (No effect (NE): measured KD within 2.5-fold of WT hIGF-1R-Fc),W (Weak (W): measured KD between 2.5-10-fold higher than WT)
SD209: hIGF-1R-Fc mutant K306E,–,–,NE (No effect (NE): measured KD within 2.5-fold of WT hIGF-1R-Fc),–,–,NE (No effect (NE): measured KD within 2.5-fold of WT hIGF-1R-Fc),NE (No effect (NE): measured KD within 2.5-fold of WT hIGF-1R-Fc)
SD210: hIGF-1R-Fc mutant T308E,–,–,NE (No effect (NE): measured KD within 2.5-fold of WT hIGF-1R-Fc),–,–,NE (No effect (NE): measured KD within 2.5-fold of WT hIGF-1R-Fc),W (Weak (W): measured KD between 2.5-10-fold higher than WT)
SD211: hIGF-1R-Fc mutant K327N,–,–,NE (No effect (NE): measured KD within 2.5-fold of WT hIGF-1R-Fc),–,–,NE (No effect (NE): measured KD within 2.5-fold of WT hIGF-1R-Fc),W (Weak (W): measured KD between 2.5-10-fold higher than WT)
SD212: hIGF-1R-Fc mutant L379R,–,–,NE (No effect (NE): measured KD within 2.5-fold of WT hIGF-1R-Fc),–,–,NE (No effect (NE): measured KD within 2.5-fold of WT hIGF-1R-Fc),W (Weak (W): measured KD between 2.5-10-fold higher than WT)
SDWT: wild-type hIGF-1R-Fc,1.0,–,–,–,–,–,–

# — US20090291088A1, “THERAPEUTIC COMBINATIONS OF ANTI-IGF-1R ANTIBODIES AND OTHER COMPOUNDS” (Biogen Idec MA Inc., priority 2008, published 2009)
